Results published in patent US4362725A, “Cephalosporins” (Dr. Karl Thomae Gesellschaft mit beschrankter Haftung, priority 1980, dated 1982).
Values after ≈ are worked out from the molar mass of the structure shown.

Tests used:
[1] = tested on: Klebsiella pneumoniae BC 6; experiment: In vitro serial dilution test in the microtiter system (MIC), Klebsiella BC 6; format: cell-based; conditions: BC6, 18 to 20 h at 37° C., read-out: MIC Klebs. pneum. BC 6
Description: (§1) The tests were performed using the serial dilution test in the microtiter system. The effect of the test compound on bacteristasis was examined in a liquid medium at the following concentrations: >64, 64 32, 16, 8, 4, 2, 1, 0.5, 0.25, 0.125, 0.06, 0.03 and 0.015 μgm/ml. The nutrient medium consisted of 10 gm of peptone, 8 gm of meat extract oxoid, 3 gm of sodium chloride, and 2 gm of sec. sodium phosphate diluted with distilled water to […] (pH 7.2-7.4). Only in the test against streptococci 1% of glucose was added. The age of the primary cultures was approximately 20 hours. The standardization of the bacteria suspension was effected using a photometer according to the method of Eppendorf (test tube .phi.-mm, filter 546 nm), using for comparison a barium sulfate suspension formed by the addition of 3.0 ml of 1% barium chloride solution to 97 ml of 1% sulfuric acid. After standardization, the test microorganisms were further diluted to a concentration of 1:1500, using a sodium chloride solution.
(§2) 16 mgm of the particular test compound were put into a 10 ml measuring flask, and the flask was subsequently filled to the mark with solvent. The further dilution series was standardized with distilled water or the appropriate solvent.
(§3) The cavities of the microtiter plates were filled with 0.2 ml of nutrient medium. 0.01 ml of the appropriate test compound solution was then added, followed by inoculation with 0.01 ml (1 drop) of the standardized bacteria suspension. The bacteria were incubated at 37° C. for 18 to 20 hours. Control tests using only the solvent were carried out simultaneously.
(§4) The readings were made macroscopically to determine the minimum inhibitory concentration (the lowest still bacteriostatically effective concentration).
(§5) The following test organisms were used:
(§6) Staphylococcus aureus SG 511, Escherichia coli ATCC11 775, Pseudomonas aeruginosa hamburgensis and Pseudomonas aeruginosa BC 19, Serratia marcescens ATCC 13 880, Klebsiella pneumoniae ATCC 10 031 and BC 6, Proteus mirabilis BC 17, Proteus rettgeri BC 7, Enterobacter Cloaceae ATCC 13047 and E. coli R+TEM (β-lactamase carrier).

[2] = tested on: Pseudomonas aeruginosa BC 19; experiment: In vitro serial dilution test in the microtiter system (MIC), Pseudomonas BC 19; format: cell-based; conditions: BC19, 18 to 20 h at 37° C., read-out: MIC Pseud. aerug. BC 19
Description: as §1, §2, §3, §4, §5, §6

E. coli ATCC 11 775 = experiment: In vivo activity in mice, experimental E. coli infection; design: species or system mice (female, NMRI strain); conditions: Escherichia coli, ATCC11, sc, 168 h; s.c., once 1 hour after i.p. E. coli infection; 7 days observation; read-out: ED50 (dose at which 50% of the animals survive)
Description: (§7) Several of the compounds of this invention were tested in vivo against experimental infections in mice. E. coli ATCC 11 775 and Pseudomonas aeruginosa BC 19 were used as the pathogenic bacteria. An interaperitoneal infection was induced with 0.2 ml of a bacterial suspension (containing 5% of mucin). This corresponds to approximately 1.4×10^6 E. coli germs or to 1.3×10^6 pseudomonas germs per mouse. Female mice of the NMRI strain were divided up into groups of 10 animals of which 2 groups remained untreated while the remaining groups were subcutaneously administered various doses of the particular cephalosporins according to the invention for the purpose of determining the ED50 (dose at which 50% of the animals survive). In the case of the E. coli infection, the treatment was applied once (1 hour after infection) while the pseudomonas infection was treated 3 times (1, 3 and 5 hours after infection).
(§8) In both cases, the observation period was 7 days. The results of these tests, carried out with typical representatives of the cephalosporins according to the invention, are shown in Table 3 below.

[3] = tested on: Serratia marcescens ATCC 13 880; experiment: In vitro serial dilution test in the microtiter system (MIC), Serratia; format: cell-based; conditions: 18 to 20 h at 37° C., read-out: MIC Ser. marcesc. ATCC 13880
Description: as §1, §2, §3, §4, §5, §6

[4] = tested on: Klebsiella pneumoniae ATCC 10 031; experiment: In vitro serial dilution test in the microtiter system (MIC), Klebsiella ATCC 10031; format: cell-based; conditions: 18 to 20 h at 37° C., read-out: MIC Klebs. pneum. ATCC 10031
Description: as §1, §2, §3, §4, §5, §6

[5] = tested on: Enterobacter Cloaceae ATCC 13047; experiment: In vitro serial dilution test in the microtiter system (MIC), Enterobacter; format: cell-based; conditions: ATCC13047, 18 to 20 h at 37° C., read-out: MIC Eb. cloaceae
Description: as §1, §2, §3, §4, §5, §6

[6] = tested on: Staphylococcus aureus SG 511; experiment: In vitro serial dilution test in the microtiter system (MIC), S. aureus; format: cell-based; conditions: SG511, 18 to 20 h at 37° C.
Description: as §1, §2, §3, §4, §5, §6

[7] = tested on: E. coli R+TEM (β-lactamase carrier); experiment: In vitro serial dilution test in the microtiter system (MIC), E. coli R+TEM; format: cell-based; conditions: Escherichia coli, read-out: MIC E. coli R + TEM
Description: as §1, §2, §3, §4, §5, §6

Proteus mirabilis BC 17 = experiment: In vitro serial dilution test in the microtiter system (MIC), Proteus mirabilis; format: cell-based; conditions: BC17, 18 to 20 h at 37° C., read-out: MIC Prot. mir. BC 17
Description: as §1, §2, §3, §4, §5, §6

[8] = tested on: Escherichia coli ATCC11 775; experiment: In vitro serial dilution test in the microtiter system (MIC), E. coli; format: cell-based; conditions: 18 to 20 h at 37° C., read-out: MIC E. coli ATCC 11775
Description: as §1, §2, §3, §4, §5, §6

Proteus rettgeri BC 7 = experiment: In vitro serial dilution test in the microtiter system (MIC), Proteus rettgeri; format: cell-based; conditions: Providencia rettgeri, BC7; 18 to 20 h at 37° C.; read-out: MIC Prot. rettg. BC 7
Description: as §1, §2, §3, §4, §5, §6

[9] = tested on: Pseudomonas aeruginosa hamburgensis; experiment: In vitro serial dilution test in the microtiter system (MIC), Pseudomonas Hbg.; format: cell-based; conditions: 18 to 20 h at 37° C., read-out: MIC Pseud. aerug. Hbg.
Description: as §1, §2, §3, §4, §5, §6

[10] = tested on: Pseudomonas aeruginosa BC 19; experiment: In vivo activity in mice, experimental Pseudomonas infection; design: species or system mice (female, NMRI strain); conditions: BC19, sc, 168 h, per dose, s.c., 3 times (1, 3 and 5 hours after i.p. Pseudomonas infection), 7 days observation, read-out: ED50 (dose at which 50% of the animals survive)
Description: as §7, §8

| SMILES | MIC [1] [µg/mL] | MIC [2] [µg/mL] | ED50 (E. coli ATCC 11 775) [mg/kg] | MIC [3] [µg/mL] | MIC [4] [µg/mL] | MIC [5] [µg/mL] | MIC [6] [µg/mL] | MIC [7] [µg/mL] | MIC (Proteus mirabilis BC 17) [µg/mL] | MIC [8] [µg/mL] | MIC (Proteus rettgeri BC 7) [µg/mL] | MIC [9] [µg/mL] | ED50 [10] [mg/kg] |
| --- | --- | --- | --- | --- | --- | --- | --- | --- | --- | --- | --- | --- | --- |
| CO/N=C(\C(=O)N[C@@H]1C(=O)N2C(C(=O)O)=C(COC(N)=O)CS[C@H]12)c1ccco1 [Cefuroxim, reference compound] | 4 (≈ 9.43 µM) | > 100 | > 100 | 8 (≈ 18.9 µM) | 2 (≈ 4.71 µM) | 32 (≈ 75.4 µM) | 1 (≈ 2.36 µM) | 4 | 0.5 (≈ 1.18 µM) | 8 (≈ 18.9 µM) | 2 (≈ 4.71 µM) | > 100 |  |
| Cc1nnc(SCC2=C(C(=O)O)N3C(=O)[C@@H](NC(=O)Cn4cnnn4)[C@H]3SC2)s1 [Cephazolin, reference compound] | 2 (≈ 4.4 µM) | > 100 |  | > 100 | 1 (≈ 2.2 µM) | > 100 | 0.06 (≈ 0.132 µM) | 4 | 4 (≈ 8.8 µM) | 4 (≈ 8.8 µM) | > 100 | > 100 |  |
| NS(=O)(=O)c1ccc(Nc2ncc(NC(=O)NC(C(=O)N[C@@H]3C(=O)N4C(C(=O)O)=C(CSc5nnnn5CC(=O)O)CS[C@H]34)c3ccc(O)cc3)c(O)n2)cc1 (stereo partly drawn) [Compound 5] | 0.5 (≈ 0.603 µM) | 8 (≈ 9.65 µM) |  | 0.5 (≈ 0.603 µM) | 0.5 (≈ 0.603 µM) | 2 (≈ 2.41 µM) | 4 (≈ 4.83 µM) | 32 | 0.12 (≈ 0.145 µM) | 0.5 (≈ 0.603 µM) | 0.25 (≈ 0.302 µM) | 8 (≈ 9.65 µM) |  |
| NS(=O)(=O)c1ccc(Nc2ncc(NC(=O)NC(C(=O)N[C@@H]3C(=O)N4C(C(=O)O)=C(CSc5nnnn5CCO)CS[C@H]34)c3ccc(O)cc3)c(O)n2)cc1 (stereo partly drawn) [Compound 7] | 0.12 (≈ 0.147 µM) | 4 (≈ 4.91 µM) | ~0.3 | 0.12 (≈ 0.147 µM) | 0.12 (≈ 0.147 µM) | 0.25 (≈ 0.307 µM) | 1 (≈ 1.23 µM) | 4 | 0.06 (≈ 0.0736 µM) | 0.03 (≈ 0.0368 µM) | 0.25 (≈ 0.307 µM) | 4 (≈ 4.91 µM) | 6.3 |
| Cn1c(SCC2=C(C(=O)O)N3C(=O)[C@@H](NC(=O)C(NC(=O)Nc4cnc(Nc5ccc(S(N)(=O)=O)cc5)nc4O)c4ccc(O)cc4)[C@H]3SC2)nnc(O)c1=O (stereo partly drawn) [Compound 16] | 0.25 (≈ 0.302 µM) | 4 (≈ 4.83 µM) | ~0.8 | 0.25 (≈ 0.302 µM) | 0.12 (≈ 0.145 µM) | 0.25 (≈ 0.302 µM) | 0.12 (≈ 0.145 µM) | 4 | 0.12 (≈ 0.145 µM) | 0.12 (≈ 0.145 µM) | 0.25 (≈ 0.302 µM) | 8 (≈ 9.66 µM) | 10 to 20 |
| C[S+]([O-])CCn1nnnc1SCC1=C(C(=O)O)N2C(=O)[C@@H](NC(=O)C(NC(=O)Nc3cnc(Nc4ccc(S(N)(=O)=O)cc4)nc3O)c3ccc(O)cc3)[C@H]2SC1 (stereo partly drawn) [Compound 21] | 0.25 (≈ 0.29 µM) | 8 (≈ 9.29 µM) |  | 0.25 (≈ 0.29 µM) | 0.25 (≈ 0.29 µM) |  | 1 (≈ 1.16 µM) | 8 | 0.12 (≈ 0.139 µM) | 0.12 (≈ 0.139 µM) | 0.5 (≈ 0.581 µM) | 8 (≈ 9.29 µM) |  |
| CS(=O)(=O)CCn1nnnc1SCC1=C(C(=O)O)N2C(=O)[C@@H](NC(=O)C(NC(=O)Nc3cnc(Nc4ccc(S(N)(=O)=O)cc4)nc3O)c3ccc(O)cc3)[C@H]2SC1 (stereo partly drawn) [Compound 30] | 0.5 (≈ 0.57 µM) | 4 (≈ 4.56 µM) | ~0.6 | 0.5 (≈ 0.57 µM) | 0.5 (≈ 0.57 µM) | 0.5 (≈ 0.57 µM) | 2 (≈ 2.28 µM) | 8 | 0.06 (≈ 0.0684 µM) | 0.12 (≈ 0.137 µM) | 1 (≈ 1.14 µM) | 8 (≈ 9.12 µM) | 10 to 20 |
| CS(=O)(=O)NCCn1nnnc1SCC1=C(C(=O)O)N2C(=O)[C@@H](NC(=O)C(NC(=O)Nc3cnc(Nc4ccc(S(N)(=O)=O)cc4)nc3O)c3ccc(O)cc3)[C@H]2SC1 (stereo partly drawn) [Compound 36] | 0.12 (≈ 0.135 µM) | 2 (≈ 2.24 µM) |  | 0.25 (≈ 0.28 µM) | 0.12 (≈ 0.135 µM) | 0.12 (≈ 0.135 µM) | 2 (≈ 2.24 µM) | 8 | 0.06 (≈ 0.0673 µM) | 0.03 (≈ 0.0336 µM) | 0.25 (≈ 0.28 µM) | 4 (≈ 4.48 µM) |  |
| CC(=O)NCCn1nnnc1SCC1=C(C(=O)O)N2C(=O)[C@@H](NC(=O)C(NC(=O)Nc3cnc(Nc4ccc(S(N)(=O)=O)cc4)nc3O)c3ccc(O)cc3)[C@H]2SC1 (stereo partly drawn) [Compound 37] | 0.12 (≈ 0.14 µM) | 4 (≈ 4.67 µM) |  | 0.12 (≈ 0.14 µM) | 0.12 (≈ 0.14 µM) | 0.12 (≈ 0.14 µM) | 2 (≈ 2.34 µM) | 8 | 0.06 (≈ 0.0701 µM) | 0.12 (≈ 0.14 µM) | 0.25 (≈ 0.292 µM) | 8 (≈ 9.35 µM) |  |
